Article PMC3739731, “Pharmacological Inhibition of polysialyltransferase ST8SiaII Modulates Tumour Cell Migration” (PLoS ONE, 2013)
pKi: −log10 of the molar value.

Experiments:
ST8SiaII [1] = target: T1, ST8SiaII (Homo sapiens, UniProt Q92186); experiment: HPLC assay of DMB-DP3 polysialylation with recombinant human ST8SiaII, Dixon plot; format: biochemical
T1 construct: gene ST8SIA2
T1 sequence (Q92186 1-375): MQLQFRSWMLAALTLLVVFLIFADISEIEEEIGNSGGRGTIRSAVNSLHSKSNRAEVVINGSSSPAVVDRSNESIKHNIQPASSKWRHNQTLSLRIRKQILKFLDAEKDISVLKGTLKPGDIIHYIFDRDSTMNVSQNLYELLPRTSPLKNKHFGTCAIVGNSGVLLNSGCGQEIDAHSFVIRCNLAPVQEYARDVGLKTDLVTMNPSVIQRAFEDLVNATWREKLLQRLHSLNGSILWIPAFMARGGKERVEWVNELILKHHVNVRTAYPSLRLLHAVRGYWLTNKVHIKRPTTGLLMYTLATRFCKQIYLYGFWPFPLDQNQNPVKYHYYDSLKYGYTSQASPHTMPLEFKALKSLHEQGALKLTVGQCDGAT

ST8SiaII [2] = target: T1, ST8SiaII; experiment: HPLC-fluorescence enzyme kinetics, Lineweaver-Burk (Km); format: biochemical

Row | pKi (ST8SiaII [1]) | Km (ST8SiaII [2]) | Compound
1 | 5.00 |  | Nc1ccn([C@@H]2O[C@H](COP(=O)(O)O)[C@@H](O)[C@H]2O)c(=O)n1 [CMP]
2 |  | 38.9 µM | DMB-DP3
